Test results taken from paper PMC9883482, “TPX2 enhances the transcription factor activation of PXR and enhances the resistance of hepatocellular carcinoma cells to antitumor drugs” (Cell Death & Disease, 2023).
Read-outs that look alike come from different tables or passages of the source.

Assays:
[1] = Blood concentration assay of sorafenib, mice bearing MHCC97-H tumours; assay type: in vivo; conditions: nude, mouse, plasma, 2 mg/kg, 2 mg/kg oral
Experimental: Table notes: After knockdown of TPX2 in MHCC97-H cells, the cells were inoculated with nude mice to form subcutaneous tumour tissue (the volume of tumour tissue was approximately 1 g) and then given 2 mg/kg via oral administration. After knockdown TPX2 in MHCC97-H cells, the cells were inoculated into nude mice to form subcutaneous tumour tissue and then in situ liver tumour tissue was established. 2mg/kg via oral administration was given to nude mice. Thereafter, blood levels of sorafenib were measured.

[2] = Sorafenib metabolism/clearance in subcutaneous tumor tissues, LC-MS/MS; assay type: in vivo, nude mice; conditions: nude, mouse, read-out: t1/2 values (converted)
Experimental: (§1) For HCC subcutaneous tumor tissue, HCC cells were first cultured for transfection after which the cells were inoculated subcutaneously into nude mice to form tumor tissue. […] The HCC tumor tissues were collected at each time point described previously with the addition of 72 and 96 h.
(§2) During the extraction of sorafenib samples from HCC tissue samples, the tissue samples were shredded to form tissue micro-blocks and then ground with liquid nitrogen. The samples ground with liquid nitrogen were mixed with PBS and then mixed with the organic solvent acetonitrile at a ratio of 1:1. The samples were then crushed and extracted for about 30 min using vortex shaking. After that, the samples were centrifuged at 12,000 rpm and at 4 °C for about 15 to 20 min. At this time, the sample was separated into cell debris and organic and water phases.
(§3) S transition pair was detected using LC–MS/MS: (1) the parent ion was 465 Da and (2) the product ion was 252 Da.
(§4) All statistical analyses in the presence work were performed using the GraphPad 8.0 (GraphPad Software Corporation, Armonk, NY, USA). […] For the survival analysis data, the survival curves were analyzed by the log-rank (Mantel–Cox) test to detect the P-value of the survival curve, the median survival time, and the 95% confidence interval (CI). For the co-relationship analysis, the data were analyzed by linear regression to determine the overall trend of a group of data points. […] If the slope was positive, the horizontal coordinate was positively related to the vertical coordinate, and if the slope was negative, the horizontal coordinate was negatively related to the vertical coordinate. For the multi-grouped data, the ordinary one-way analysis of variance (ANOVA) and multiple comparison methods were used. An ANOVA was used to examine whether any difference between groups could be detected. The multiple comparisons (t-test) was used to detect differences between pairs of data.

[3] = tested on: subcutaneous tumor tissue formed by MHCC97-L cells; assay: as above; assay type: in vivo, nude mice; conditions: MHCC97-L subcutaneous tumour tissues, control group (rifampicin experiment)
Experimental: as §1, §2, §3, §4

LS180 cells = assay: MTT cell survival examination; assay type: cell-based; conditions: Homo sapiens
Experimental: The antitumor activity of antitumor drugs injuring HCC cells was examined by using MTT assay. After culturing the HCC cells, transfection experiments were performed, and the cells were then seeded in 96-well cell culture plates (about 8000 cells per well). […] After the cells were treated with the drug for about 48 h, a dose of […] tetrazolium (MTT) reagent was added, and cells with the MTT reagent were incubated for 5 to 6 h. After incubation with the MTT was complete, all liquid in the 96-well cell culture plate was discarded, and about 100 μl of DMSO was added to each well to dissolve the cell samples. During the process of lysing the cell samples, the cell culture plate was shaken for 15 minutes to completely lyse the cells. After the lysis step was complete, the cell culture plate was centrifuged at 12,000 rpm at 4 °C, and the supernatant was collected for evaluation.
as §4

[4] = tested on: HCC subcutaneous tumor tissues; assay: Sorafenib retention in HCC subcutaneous tumor tissues, LC-MS/MS; assay type: in vivo, nude mice; conditions: 72-h time point after intratumoral injection
Experimental: as §1, §2, §3

[5] = tested on: HCC cells (MHCC97-H, MHCC97-L, or HepG2); assay: Sorafenib retention in cultured HCC cells, LC-MS/MS; assay type: in vitro ADME, human; conditions: 48-h time point after 1 μmol/L incubation
Experimental: After incubation with sorafenib was complete, the medium containing sorafenib was discarded and replaced with normal DMEM + FBS for continuous cultures. Cell samples were collected at each time point starting at 0 (when the cell samples were collected immediately after the incubation step/baseline) followed by 4, 8, 12, 24, and 48 h.
For sorafenib-treated samples in cellular experiments, sorafenib processing and extraction of the samples were performed. HCC cell samples were re-suspended in PBS after which the organic solvent acetonitrile at a ratio of 1:1 was added. The samples were then crushed and extracted for about 30 min with vortex shaking. After that step, the samples were centrifuged at 12,000 rpm at 4 °C for about 15 to 20 min. At this time, the samples were separated into cell debris, organic, and water phases. The collected organic phase contained the sample of sorafenib in acetonitrile.
as §3

HepG2 cells = assay: Subcutaneous tumor model; assay type: in vivo; conditions: nude mice; 2.0, 1.0 or 0.5 mg/kg oral
Description: In the process of dissolving these pure drug powders, stirring, vortexing, and ultrasonic vibration were used to assist dissolution.
The HCC cells were transfected with plasmids and then injected into the subcutaneous position of nude mice (the HepG2 cells were transfected with TPX2 for TPX2 overexpression and the siRNA of TPX2 for TPX2 knockdown). After the cells in the bottom of the dish were digested with trypsin, the cells were gently mixed with sterilized PBS to prepare a cell suspension. The resulting cell suspension was directly injected subcutaneously into nude mice using a pre-sterilized disposable medical syringe with a capacity of 1 ml. After that step, animal status was observed every day, and the tumor tissue was collected after 4 to 6 weeks of growth to detect the tumor volume (using a Vernier caliper to measure the long and short axes of the tumor tissue after which the tumor volume was calculated according to the formula: short axis × short axis × long axis/2) and weight (accurately weighed with a 1/10000th precision balance). Finally, the tumor tissue was ground with liquid nitrogen, and qPCR was then used to measure the mRNA expression level of the corresponding genes. The intrahepatic tumor model and the in vivo imaging of small-animals-related experiments were performed according to our previous publications. […]

[6] = oral, Subcutaneous MHCC97-H Control tumour
[7] = oral, Subcutaneous MHCC97-H siTPX2 tumour
[8] = po, intrahepatic MHCC97-H Control tumour
[9] = po, intrahepatic MHCC97-H siTPX2 tumour

CNC(=O)c1cc(Oc2ccc(NC(=O)Nc3ccc(Cl)c(C(F)(F)F)c3)cc2)ccn1 [sorafenib]
concentration at 2 h [1, 6]: 23.3 ± 16.6 ng/mL
concentration at 2 h [1, 7]: 33.2 ± 19.4 ng/mL
concentration at 8 h [1, 6]: 152 ± 25.4 ng/mL
concentration at 8 h [1, 7]: 170 ± 32.3 ng/mL
concentration at 20 h [1, 6]: 123 ± 23.6 ng/mL
concentration at 20 h [1, 7]: 142 ± 21.4 ng/mL
concentration at 40 h [1, 6]: 63 ± 14.5 ng/mL
concentration at 40 h [1, 7]: 77.5 ± 23.5 ng/mL
concentration at 2 h [1, 8]: 22.5 ± 11.8 ng/mL
concentration at 2 h [1, 9]: 24.3 ± 14.2 ng/mL
concentration at 8 h [1, 8]: 146 ± 28.7 ng/mL
concentration at 8 h [1, 9]: 152 ± 22.1 ng/mL
concentration at 20 h [1, 8]: 120 ± 32 ng/mL
concentration at 20 h [1, 9]: 127 ± 31.2 ng/mL
concentration at 40 h [1, 8]: 46.8 ± 31.9 ng/mL
concentration at 40 h [1, 9]: 57.8 ± 27.6 ng/mL
half-life ([2]; subcutaneous tumor tissue formed by HepG2 cells, Control, median (95% CI)): 29.4 h
half-life ([2]; subcutaneous tumor tissue formed by HepG2 cells, TPX2 overexpression, median (95% CI)): 18.5 h
half-life ([2]; subcutaneous tumor tissue formed by HepG2 cells, siTPX2, median (95% CI)): 42.2 h
half-life ([2]; subcutaneous tumor tissue formed by MHCC97-H cells, Control, median (95% CI)): 19.7 h
half-life ([2]; subcutaneous tumor tissue formed by MHCC97-H cells, siTPX2, median (95% CI)): 27.5 h
half-life ([2]; subcutaneous tumor tissue formed by MHCC97-L cells, MHCC97-L tumor tissues, Control, median (95% CI)): 28.3 h
half-life ([2]; subcutaneous tumor tissue formed by MHCC97-L cells, MHCC97-L tumor tissues, TPX2 overexpression, median (95% CI)): 13.5 h
half-life ([2]; subcutaneous tumor tissue formed by MHCC97-L cells, other: injected directly into the tumor tissue, MHCC97-L subcutaneous tumour tissues, TPX2 overexpression + rifampicin 5 mg/kg oral): 11.4 h
half-life ([2]; subcutaneous tumor tissue formed by MHCC97-L cells, other: injected directly into the tumor tissue, MHCC97-L subcutaneous tumour tissues, TPX2 overexpression group (rifampicin experiment)): 14 h
t1/2 values [3]: 29.70 [21.38–36.75]
IC50 (LS180 cells; LS180, LS180, TPX2 knockdown): 250 nM
IC50 (LS180 cells; LS180, LS180, TPX2 overexpression): 4300 nM
IC50 (LS180 cells; LS180, LS180, control group): 910 nM
metabolism and elimination in HCC tissues [4]: almost completely metabolized and eliminated
metabolism and elimination in cultured HCC cells [5]: almost completely metabolized and eliminated
subcutaneous growth of HepG2 cells (tumor volumes/weights) (HepG2 cells): inhibited the subcutaneous growth of HepG2 cells in a dose-dependent manner
